Read-outs that look alike come from different tables or passages of the source. Blank lines part the entries; values can stand above or below the compound they belong to.
Legend:
[1] = Protocol: (§1) Plasma from 9 individual male fish (500 µL/individual) was pooled to yield 3 samples for PPCP analysis. […] Plasma from 6 individual carp (2.3–3.5 g) from each location was selected for PPCP analysis. […] Plasma samples were frozen (−80 °C) until analysis.
(§2) A total of 20 fish plasma samples from the pooled caged fish (7) and the wild fish (13) along with 12 water samples were selected for analysis. […] A full list of analytes is provided in Supplementary Information. Mass labelled^13C-, or deuterated surrogate internal standards were used for quantification of all analytes via the isotope dilution/surrogate standard quantitation method. Prior to extraction and/or clean-up procedures, aqueous samples were adjusted to pH 2.0, spiked with extraction surrogate standards, then adjusted to pH 4 using tetrasodium ethylenediamine-tetraacetate dihydrate. Plasma samples (2.3–2.5 g) were spiked with extraction surrogate standards, sonicated with 20 mL acetonitrile, then diluted with ultra-pure water to 200 mL. The extracts were cleaned up by solid phase extraction using Oasis HLB cartridges (Waters Ltd. Mississauga ON), filtered, and analyzed by liquid chromatography-electrospray ionization-tandem mass spectrometry (LC/ESI-MS/MS) in positive or negative ionization mode. The analysis of the complete list of analytes (SI Table S1) required a total of five instrumental runs.

in vivo = conditions: goldfish (Carassius auratus), in vivo
Source text: Cages were visited weekly, and fish (13/cage) were fed during the visits (20 g/cage). All animal experiments were in accordance with CCAC guidance and approved by the GLLFAS-WSTD Animal Care Committee (Government of Canada). Further details on the caging and preparation of the fish and animal care protocols are provided in Simmons et al.[32]. […] A fourth site, Jordan Harbour (JH), a widening of 20 Mile Creek adjacent to Lake Ontario near Jordan ON, served as a reference site. Mass and fork length were measured and recorded. Plasma collection and storage is described in the SI. Plasma of caged goldfish was divided for proteome, metabolome and PPCP analysis. Due to limited volumes, pooled samples of plasma from 25 individual fish (50 µL/individual) was pooled to yield one sample from at each location for PPCP analysis.
as §2
(§3) Quality assurance steps included analysis of lab blanks for water and plasma along with matrix recovery spikes. […] Detection limits (DLs) were defined as lowest calibration level adjusted to the maximal sample size or 3 times the signal of the noise in the target channel converted to an equivalent sample, whichever was greater. […] Where analytes were detected in two or more samples of the same species or series of water samples, non-detect values were converted to ½ the DL value for reporting purposes.

[2] = Plasma bioaccumulation factor (BAFP), goldfish; format: in vivo, goldfish (Carassius auratus); conditions: CPM2; water sample of August 2012
Protocol: Bioaccumulation factor (BAFP) was calculated as concentration in fish plasma (ng/g × 1000) divided by concentration in water (ng/L). Two widely used modeling approaches for predicting organic contaminant bioaccumulation were assessed: the BCF-BAF model for whole body BAFs[53] and the fish-plasma concentration calculation of Huggett et al.[35] modified by Berninger et al.[54]. The latter involves estimating an octanol-water partition coefficient (Kow) adjusted for fraction ionized (log D), using the pKa value to adjust log Kow[54] taking into account the pH of CPM waters. Further information on the calculation of log D, blood-water partitioning (PBW), and plasma concentrations (FPC) is given in the SI.

[3] = remark: listed apart in the source
Protocol: as §1, §2, §3

[4] = cited from earlier work
[5] = cited from earlier work; remark: listed apart in the source
[6] = cited from earlier work; for Salmon (whole body) concentration: Table S7, ref Meador et al. (2016)
[7] = design: method as in US EPA Chemistry Dashboard; conditions: ref US EPA Chemistry Dashboard; cited from earlier work
[8] = carp (Cyprinus carpio), in vivo
[9] = female, carp (Cyprinus carpio), in vivo
[10] = male, carp (Cyprinus carpio), in vivo
[11] = male, goldfish (Carassius auratus), in vivo
[12] = Jordan Harbour brown bullhead, wet weight

- plasma concentration, JH-BB ([1]; Brown Bullhead (Ameiurus nebulosus), in vivo): 0.622 ng/g
- concentration at 21 days (in vivo; caged goldfish plasma, range of concentrations): 0.16 to 1.37 ng/g
- concentration at 21 days (in vivo; plasma concentration, CPM1 caged): 1.1 ng/g
- concentration at 21 days (in vivo; plasma concentration, CPM2 caged): 0.146 ng/g
- concentration at 21 days (in vivo; plasma concentration, CPM3 caged): 0.344 ng/g
- concentration at 21 days (in vivo; plasma concentration, JH caged): < 0.3 ng/g
- BAFP, CPM2 goldfish caged [2]: 38 L/kg
- Cootes carp plasma, range of concentrations [3, 8]: 0.16 to 1.23 ng/g
- plasma concentration, carp, this study (mean) [3, 8]: 0.70 ng/g wet weight or ng/mL for plasma
- plasma concentration, CPM-C 10 [3, 9]: 1.23 ng/g
- plasma concentration, CPM-C 13 [3, 9]: 1.14 ng/g
- plasma concentration, CPM-C 36 [3, 9]: 0.698 ng/g
- plasma concentration, JH-C 73 [3, 9]: 0.155 ng/g
- plasma concentration, JH-C 75 [3, 9]: 0.474 ng/g
- plasma concentration, JH-C 82 [3, 9]: 0.151 ng/g
- plasma concentration, CPM-C 01 [3, 10]: 0.158 ng/g
- plasma concentration, CPM-C 2 [3, 10]: 0.799 ng/g
- plasma concentration, CPM-C 20 [3, 10]: 0.162 ng/g
- plasma concentration, JH-C 54 [3, 10]: 0.159 ng/g
- plasma concentration, JH-C 74 [3, 10]: 0.160 ng/g
- plasma concentration, JH-C 78 [3, 10]: 0.252 ng/g
- plasma concentration, CPM wild-01 [3, 11]: 1.37 ng/g
- plasma concentration, CPM wild-02 [3, 11]: 0.188 ng/g
- plasma concentration, CPM wild-03 [3, 11]: 0.157 ng/g
- plasma concentration, goldfish, this study (mean) [3, 11]: 0.57 ng/g wet weight or ng/mL for plasma
- wild goldfish plasma, range of concentrations [3, 11]: 0.15 to 1.1 ng/g
SMILES: CC1CCc2cc(F)cc3c(=O)c(C(=O)O)cn1c23 (stereo not shown) [Flumequine]

SMILES: O=C(Nc1ccc(Cl)cc1)Nc1ccc(Cl)c(Cl)c1 [Triclocarban]
- plasma concentration, JH-BB [1, 12]: < 1.14 ng/g
- BAFP in carp plasma, median [4]: 6.9
- plasma concentration, crucian carp & common carp ([4]; mean ± SD, ref Tanoue et al.16): 0.34±0.20 ng/g wet weight or ng/mL for plasma
- whole fish concentration, sculpin ([5]; ref Meador et al. 18): < mdl
- Salmon (whole body) concentration [6]: 6.5 ng/g
- whole fish concentration, salmon ([6]; ref Meador et al. 18): 6.5 ng/g wet weight or ng/mL for plasma
- log Kow [7]: 4.90
- Cootes carp plasma, range of concentrations ([3]; Cootes Paradise Marsh, range): 0.32 to 3.35 ng/g
- plasma concentration, CPM-C 01 ([3]; Cootes carp 01, 2011, male, wet weight): 0.317 ng/g
- plasma concentration, CPM-C 2 ([3]; Cootes carp 2, Sep 27, 2011, male, wet weight): 0.431 ng/g
- plasma concentration, CPM-C 10 ([3]; Cootes carp 10, Sep 28, 2011, female, wet weight): 0.453 ng/g
- plasma concentration, CPM-C 13 ([3]; Cootes carp 13, Sep 28, 2011, female, wet weight): 0.468 ng/g
- plasma concentration, CPM-C 20 ([3]; Cootes carp 20, 2011, male, wet weight): 0.324 ng/g
- plasma concentration, CPM-C 36 ([3]; Cootes carp 36, Oct 3, 2011, female, wet weight): 3.35 ng/g
- Carp plasma concentration, this study (range) ([3]; Table S7): 0.32 to 3.35 ng/g
- plasma concentration, carp, this study (mean) ([3]; Table S8): 0.89 ng/g wet weight or ng/mL for plasma
- plasma concentration, goldfish, this study (mean) ([3]; Table S8): < mdl

SMILES: Cn1c(=O)c2c(ncn2C)n(C)c1=O [Caffeine]
- plasma concentration, JH-BB [1, 12]: < 5.7 ng/g
- concentration at 21 days (in vivo; plasma concentration, CPM1 caged, CPM1, 07-2014, pooled plasma, wet weight): 3.38 ng/g
- concentration at 21 days (in vivo; plasma concentration, CPM2 caged, CPM2, 07-2014, pooled plasma, wet weight): 1.46 ng/g
- concentration at 21 days (in vivo; plasma concentration, CPM3 caged, CPM3, 07-2014, pooled plasma, wet weight): 1.53 ng/g
- concentration at 21 days (in vivo; plasma concentration, JH caged, Jordan Harbour reference site, 07-2014, pooled plasma, wet weight): < 3 ng/g
- Sculpin (whole body) concentration ([5]; Table S7, ref Meador et al. (2016)): 13 ng/g
- Salmon (whole body) concentration [6]: 18 ng/g
- plasma concentration, JH-C 54 ([3]; Jordan Harbour carp 54, Nov 7, 2011, male, wet weight): < 3.18 ng/g
- plasma concentration, JH-C 73 ([3]; Jordan Harbour carp 73, Nov 7, 2011, female, wet weight): < 3.09 ng/g
- plasma concentration, JH-C 74 ([3]; Jordan Harbour carp 74, Nov 7, 2011, male, wet weight): < 3.19 ng/g
- plasma concentration, JH-C 75 ([3]; Jordan Harbour carp 75, Nov 7, 2011, female, wet weight): < 4.52 ng/g
- plasma concentration, JH-C 78 ([3]; Jordan Harbour carp 78, Nov 7, 2011, male, wet weight): < 3.13 ng/g
- plasma concentration, JH-C 82 ([3]; Jordan Harbour carp 82, Nov 7, 2011, female, wet weight): < 3.01 ng/g
- plasma concentration, CPM wild-02 ([3]; wild goldfish sample 02, 2012, wet weight): 1.525 ng/g
- plasma concentration, CPM wild-03 ([3]; wild goldfish sample 03, 2012, wet weight): 1.565 ng/g
